Measured values taken from patent publication US10738056B2 (Aduro BioTech, Inc., priority 2017, dated 2020).

These compounds were tested against Human cGAS amino acids 155-522 (Homo sapiens (Human), UniProt Q8N884) (assay: cGAS biochemical activity assay (ATP remaining, Kinase-Glo Max luminescence)). Settings: human cGAS 155-522, ATP remaining (Kinase-Glo Max); read-out: cGAS IC50.
Sequence of Human cGAS amino acids 155-522 (Q8N884 157-522): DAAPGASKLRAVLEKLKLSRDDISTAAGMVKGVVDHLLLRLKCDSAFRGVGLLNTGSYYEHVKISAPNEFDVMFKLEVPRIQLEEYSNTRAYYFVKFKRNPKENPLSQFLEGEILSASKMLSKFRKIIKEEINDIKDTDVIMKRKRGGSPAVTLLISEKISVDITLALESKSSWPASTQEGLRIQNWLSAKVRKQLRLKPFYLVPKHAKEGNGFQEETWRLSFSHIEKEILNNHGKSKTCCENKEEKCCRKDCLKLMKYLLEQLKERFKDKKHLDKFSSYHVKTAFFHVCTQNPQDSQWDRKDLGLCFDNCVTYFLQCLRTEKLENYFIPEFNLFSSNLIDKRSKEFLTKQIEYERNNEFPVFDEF

SMILES | IC50 [µM]
Cc1[nH]c2c(-c3ccccc3)c(C(F)(F)F)nn2c(=O)c1-c1nnc(C2COCCN2C(=O)OCc2ccccc2)o1 (stereo not drawn) [Compound D1039, benzyl 3-(5-(5-methyl-7-oxo-3-phenyl-2-(trifluoromethyl)-4,7-dihydropyrazolo[1,5-a]pyrimidin-6-yl)-1,3,4-oxadiazol-2-yl)morpholine-4-carboxylate] | 20 to 250
Cc1[nH]c2c(-c3ccccc3)c(C(F)(F)F)nn2c(=O)c1-c1nnc(N(C)C2CCCCC2)o1 [Compound D1043, 6-(5-(cyclohexyl(methyl)amino)-1,3,4-oxadiazol-2-yl)-5-methyl-3-phenyl-2-(trifluoromethyl)pyrazolo[1,5-a]pyrimidin-7(4H)-one] | > 250
Cc1[nH]c2c(-c3ccccc3)c(C(F)(F)F)nn2c(=O)c1-c1nnc(C2CCN(C(=O)OC(C)(C)C)CC2)o1 [Compound D1044, tert-butyl 4-(5-(5-methyl-7-oxo-3-phenyl-2-(trifluoromethyl)-4,7-dihydropyrazolo[1,5-a]pyrimidin-6-yl)-1,3,4-oxadiazol-2-yl)piperidine-1-carboxylate] | 20 to 250
Cc1[nH]c2c(-c3ccccc3)c(C(F)(F)F)nn2c(=O)c1-c1nnc(C2CCCCN2C(=O)OC(C)(C)C)o1 (stereo not drawn) [Compound D1045, tert-butyl 2-(5-(5-methyl-7-oxo-3-phenyl-2-(trifluoromethyl)-4,7-dihydropyrazolo[1,5-a]pyrimidin-6-yl)-1,3,4-oxadiazol-2-yl)piperidine-1-carboxylate] | 20 to 250
COCC1CCCN1c1nnc(-c2c(C)[nH]c3c(-c4ccccc4)c(C(F)(F)F)nn3c2=O)o1 (stereo not drawn) [Compound D1059, 6-(5-(2-(methoxymethyl)pyrrolidin-1-yl)-1,3,4-oxadiazol-2-yl)-5-methyl-3-phenyl-2-(trifluoromethyl)pyrazolo[1,5-a]pyrimidin-7(4H)-one] | 20 to 250
COCC1CCCCN1c1nnc(-c2c(C)[nH]c3c(-c4ccccc4)c(C(F)(F)F)nn3c2=O)o1 (stereo not drawn) [Compound D1060, 6-(5-(2-(methoxymethyl)piperidin-1-yl)-1,3,4-oxadiazol-2-yl)-5-methyl-3-phenyl-2-(trifluoromethyl)pyrazolo[1,5-a]pyrimidin-7(4H)-one] | 20 to 250
Cc1[nH]c2c(-c3ccccc3)c(C(F)(F)F)nn2c(=O)c1-c1nnc(-c2ccc([N+](=O)[O-])cc2)o1 [Compound D1061, 5-methyl-6-(5-(4-nitrophenyl)-1,3,4-oxadiazol-2-yl)-3-phenyl-2-(trifluoromethyl)pyrazolo[1,5-a]pyrimidin-7(4H)-one] | 20 to 250
Cc1[nH]c2c(-c3ccccc3)c(C(F)(F)F)nn2c(=O)c1-c1nnc(-c2cccnc2)o1 [Compound D1063, 5-methyl-3-phenyl-6-(5-(pyridin-3-yl)-1,3,4-oxadiazol-2-yl)-2-(trifluoromethyl)pyrazolo[1,5-a]pyrimidin-7(4H)-one] | 20 to 250
Cc1[nH]c2c(-c3ccccc3)c(C(F)(F)F)nn2c(=O)c1-c1nnc(CC2CCN(C)CC2)o1 [Compound D1065, 5-methyl-6-(5-((1-methylpiperidin-4-yl)methyl)-1,3,4-oxadiazol-2-yl)-3-phenyl-2-(trifluoromethyl)pyrazolo[1,5-a]pyrimidin-7(4H)-one] | 20 to 250
Cc1[nH]c2c(-c3ccccc3)c(C(F)(F)F)nn2c(=O)c1-c1nnc(N2CCS(=O)(=O)CC2)o1 [Compound D1068, 6-(5-(1,1-dioxidothiomorpholino)-1,3,4-oxadiazol-2-yl)-5-methyl-3-phenyl-2-(trifluoromethyl)pyrazolo[1,5-a]pyrimidin-7(4H)-one] | 20 to 250
Cc1[nH]c2c(-c3ccccc3)c(C(F)(F)F)nn2c(=O)c1-c1nnc(N2CCCCC2CCNS(C)(=O)=O)o1 (stereo not drawn) [Compound D1073, N-(2-(1-(5-(5-methyl-7-oxo-3-phenyl-2-(trifluoromethyl)-4,7-dihydropyrazolo[1,5-a]pyrimidin-6-yl)-1,3,4-oxadiazol-2-yl)piperidin-2-yl)ethyl)methanesulfonamide] | < 20
Cc1[nH]c2c(-c3ccccc3)c(C(F)(F)F)nn2c(=O)c1-c1nnc(C(=N)N)o1 [Compound D1074, 5-(5-methyl-7-oxo-3-phenyl-2-(trifluoromethyl)-4,7-dihydropyrazolo[1,5-a]pyrimidin-6-yl)-1,3,4-oxadiazole-2-carboximidamide] | < 20

Next, values leading:

IC50 [µM] | SMILES
20 to 250 | Cc1[nH]c2c(-c3ccccc3)c(C(F)(F)F)nn2c(=O)c1-c1nnc(C2CCNCC2)o1 [Compound D1052, 5-methyl-3-phenyl-6-(5-(piperidin-4-yl)-1,3,4-oxadiazol-2-yl)-2-(trifluoromethyl)pyrazolo[1,5-a]pyrimidin-7(4H)-one]
20 to 250 | Cc1[nH]c2c(-c3ccccc3)c(C(F)(F)F)nn2c(=O)c1-c1nnc(C2CCN(S(C)(=O)=O)CC2)o1 [Compound D1053, 5-methyl-6-(5-(1-(methylsulfonyl)piperidin-4-yl)-1,3,4-oxadiazol-2-yl)-3-phenyl-2-(trifluoromethyl)pyrazolo[1,5-a]pyrimidin-7(4H)-one]
20 to 250 | CC(=O)N1CCC(c2nnc(-c3c(C)[nH]c4c(-c5ccccc5)c(C(F)(F)F)nn4c3=O)o2)CC1 [Compound D1054, 6-(5-(1-acetylpiperidin-4-yl)-1,3,4-oxadiazol-2-yl)-5-methyl-3-phenyl-2-(trifluoromethyl)pyrazolo[1,5-a]pyrimidin-7(4H)-one]
20 to 250 | Cc1[nH]c2c(-c3ccccc3)c(C(F)(F)F)nn2c(=O)c1-c1nnc(N2CCN(C)CC2)o1 [Compound D1058, 5-methyl-6-(5-(4-methylpiperazin-1-yl)-1,3,4-oxadiazol-2-yl)-3-phenyl-2-(trifluoromethyl)pyrazolo[1,5-a]pyrimidin-7(4H)-one]
> 250 | COc1ncccc1-c1nnc(-c2c(C)[nH]c3c(-c4ccccc4)c(C(F)(F)F)nn3c2=O)o1 [Compound D1064, 6-(5-(2-methoxypyridin-3-yl)-1,3,4-oxadiazol-2-yl)-5-methyl-3-phenyl-2-(trifluoromethyl)pyrazolo[1,5-a]pyrimidin-7(4H)-one]
< 20 | Cc1[nH]c2c(-c3ccccc3)c(C(F)(F)F)nn2c(=O)c1-c1nnc(C(N)=O)o1 [Compound D1066, 5-(5-methyl-7-oxo-3-phenyl-2-(trifluoromethyl)-4,7-dihydropyrazolo[1,5-a]pyrimidin-6-yl)-1,3,4-oxadiazole-2-carboxamide]
< 20 | Cc1[nH]c2c(-c3ccccc3)c(C(F)(F)F)nn2c(=O)c1-c1nnc(-c2cccnc2O)o1 [Compound D1067, 6-(5-(2-hydroxypyridin-3-yl)-1,3,4-oxadiazol-2-yl)-5-methyl-3-phenyl-2-(trifluoromethyl)pyrazolo[1,5-a]pyrimidin-7(4H)-one]
20 to 250 | Cc1[nH]c2c(-c3ccccc3)c(C(F)(F)F)nn2c(=O)c1-c1nnc(N2CCCCC2CCN)o1 (stereo not drawn) [Compound D1069, 6-(5-(2-(2-aminoethyl)piperidin-1-yl)-1,3,4-oxadiazol-2-yl)-5-methyl-3-phenyl-2-(trifluoromethyl)pyrazolo[1,5-a]pyrimidin-7(4H)-one]
20 to 250 | Cc1[nH]c2c(-c3ccccc3)c(C(F)(F)F)nn2c(=O)c1-c1nnc(N)o1 [Compound D1075, 6-(5-amino-1,3,4-oxadiazol-2-yl)-5-methyl-3-phenyl-2-(trifluoromethyl)pyrazolo[1,5-a]pyrimidin-7(4H)-one]
